Test results published in ChEMBL document CHEMBL3400035, “Synthesis, in vitro anticancer and antimycobacterial evaluation of new 5-(2,5-dimethoxyphenyl)-1,3,4-thiadiazole-2-amino derivatives” (Bioorg Med Chem Lett, 2015).
Activity calls are given as the source filed them. The rule behind the calls is not given here.

Assays:
HT-29 = assay: Cytotoxicity against human HT-29 cells assessed as growth inhibition at 25 uM by MTT assay; format: functional; conditions: read-out: GI
MDA-MB-231 [1] = assay: Cytotoxicity against human MDA-MB-231 cells assessed as growth inhibition at 25 uM by MTT assay; format: functional; conditions: read-out: GI
[2] = test system: Mycolicibacterium smegmatis; assay: Anti-tubercular activity against Mycobacterium smegmatis str. MC2 155; format: functional, organism-based
[3] = test system: Mycolicibacterium smegmatis; assay: Anti-tubercular activity against Mycobacterium smegmatis str. MC2 155 relative to untreated control; format: functional
[4] = Cytotoxicity against HEK293 cells assessed as cell growth at 25 uM by MTT assay; format: cell-based; conditions: human, read-out: Activity
[5] = test system: Mycolicibacterium smegmatis; assay: Anti-tubercular activity against Mycobacterium smegmatis str. MC2 155 at 30 uM; format: functional, organism-based
MDA-MB-231 [6] = assay: Cytotoxicity against human MDA-MB-231 cells assessed as growth inhibition by MTT assay; format: functional, cell-based

| SMILES | inhibition of growth at 25 µM (HT-29) | inhibition of growth at 25 µM (MDA-MB-231 [1]) | IC50 [2] | inhibition (INH) [3] | viability at 25 µM [4] | inhibition [5] | IC50 (MDA-MB-231 [6]) |
| --- | --- | --- | --- | --- | --- | --- | --- |
| COc1ccc(OC)c(-c2nnc(Cl)s2)c1 | 8.81% | 33.7% | 75.6 µM | >=30% | > 74.5% | – | – |
| COc1ccc(OC)c(-c2nnc(NCc3ccccc3)s2)c1 | 68.3% | 63% | 75.6 µM | >=30% | < 74.5% | – | – |
| COc1ccc(OC)c(-c2nnc(-c3ccc(C)c([N+](=O)[O-])c3)s2)c1 | 51.9% | 53.3% | – | – | > 74.5% | inactive | – |
| COc1ccc(OC)c(-c2nnc(NCc3cccc(C(F)(F)F)c3)s2)c1 | 52.6% | 51.2% | 40.9 µM | >=30% | < 74.5% | – | – |
| COc1ccc(OC)c(-c2nnc(N3CCCC3)s2)c1 | 18.8% | 38.1% | – | – | > 74.5% | inactive | – |
| COc1ccc(OC)c(-c2nnc(N3CCC(=O)CC3)s2)c1 | 33.7% | 32.5% | > 100 µM | >=30% | > 74.5% | – | – |
| COc1ccc(OC)c(-c2nnc(N3CCOCC3)s2)c1 | 18.2% | 31.2% | > 100 µM | >=30% | > 74.5% | – | – |
| COc1ccc(OC)c(-c2nnc(N3CCC(Cc4ccccc4)CC3)s2)c1 | 51% | 33.6% | 65.7 µM | >=30% | > 74.5% | – | – |
| COc1ccc(OC)c(-c2nnc(N3CCNCC3)s2)c1 | 25.5% | 41.6% | 88.1 µM | >=30% | > 74.5% | – | – |
| COc1ccc(OC)c(-c2nnc(N3CCCCC3)s2)c1 | 3.67% | 32.8% | – | – | > 74.5% | inactive | – |
| COc1ccc(OC)c(CNc2nnc(-c3cc(OC)ccc3OC)s2)c1 | 47.2% | 30.2% | > 100 µM | >=30% | > 74.5% | – | – |
| CCN1CCN(c2nnc(-c3cc(OC)ccc3OC)s2)CC1 | 9.91% | 34.6% | > 100 µM | >=30% | > 74.5% | – | – |
| NNC(=O)c1ccncc1 [ISONIAZID] | – | – | 16 µM | – | – | – | – |
| COc1ccc(CN2CCN(c3nnc(-c4cc(OC)ccc4OC)s3)CC2)cc1 | 39.8% | 36.5% | 80.3 µM | >=30% | > 74.5% | – | – |
| COc1cccc2c1C(=O)c1c(O)c3c(c(O)c1C2=O)C[C@@](O)(C(=O)CO)C[C@@H]3O[C@H]1C[C@H](N)[C@H](O)[C@H](C)O1 [DOXORUBICIN] | – | – | – | – | – | – | 1 µM |
| COc1ccc(OC)c(-c2nnc(NCc3ccc(Br)cc3)s2)c1 | 45.4% | 51.5% | > 100 µM | >=30% | < 74.5% | – | – |
| COc1ccc(OC)c(-c2nnc(-n3ccnc3)s2)c1 | 21% | 33.5% | – | – | > 74.5% | inactive | – |
| COc1ccc(OC)c(-c2nnc(N3CCCC(O)C3)s2)c1 (stereo not drawn) | 31.1% | 39.7% | > 100 µM | >=30% | > 74.5% | – | – |
| CO[C@H]1/C=C/O[C@@]2(C)Oc3c(C)c(O)c4c(O)c(c(/C=N/N5CCN(C)CC5)c(O)c4c3C2=O)NC(=O)/C(C)=C\C=C\[C@H](C)[C@H](O)[C@@H](C)[C@@H](O)[C@@H](C)[C@H](OC(C)=O)[C@@H]1C [RIFAMPIN] | – | – | 1.87 µM | – | – | – | – |
| COc1ccc(OC)c(-c2nnc(N)s2)c1 | 20.6% | 32% | > 100 µM | >=30% | > 74.5% | – | – |
| COc1ccc(OC)c(-c2nnc(-n3ccc4cc(OC)ccc43)s2)c1 | 5.65% | 24.7% | – | – | > 74.5% | inactive | – |
| COc1ccc(OC)c(-c2nnc(NCc3ccc(Cl)cc3)s2)c1 | 68.7% | 53.8% | > 100 µM | >=30% | < 74.5% | – | – |
